Literature values, collected in patent US9662315B2, “Ameliorating drug-induced elevations in blood pressure by adjunctive use of antihypertensive drugs” (Kitov Pharmaceuticals Ltd., priority 2008, dated 2017).

Details: per FDA approved drug labeling; rofecoxib compared with placebo control patients

Row | Structure (SMILES) | high blood pressure / hypertension rate in treated patients
1 | Cc1ccc(-c2cc(C(F)(F)F)nn2-c2ccc(S(N)(=O)=O)cc2)cc1 [celecoxib] | increased rate of hypertension
2 | CS(=O)(=O)c1ccc(C2=C(c3ccccc3)C(=O)OC2)cc1 [rofecoxib] | occurring more frequently
